The results in this text go back to patent US8258311B2, “Human protein tyrosine phosphatase inhibitors and methods of use” (Aerpio Therapeutics Inc., priority 2006, dated 2012).

Common to all, as to assay type: in vivo
For series [1], the system named is hindlimb ischemia. As to the kind of experiment: Rat hindlimb model of collateral development: blood flow during treadmill exercise (microspheres). Conditions: for Blood Flow During exercise Calf (GPS): mean ± SE. An excerpt: The Rat hindlimb model is used to evaluate angiogenic properties of novel HPTPb inhibitors. Specifically to determine if there is enhanced blood flow to the collateral dependent region of the leg post ischemia when the animal is in an exercise challenged state. […] An initial surgery is done to create hindlimb ischemia and implant osmotic pumps essentially as previously described with minor alterations. […] Following induction, animals are transferred to a surgical mat and anesthesia is continued via a non-rebreathing circuit. A warming lamp is positioned above the rat and a rectal probe is placed to monitor the animal's body temperature. The groin areas bilaterally are clipped and prepared with alternating Betadine and alcohol scrubs (3×) and a sterile drape is placed over the rat. The left femoral artery is exposed through a skin incision and subsequently ligated in two positions 1 cm apart; distal to the inguinal ligament and proximal to the femoral circumflex artery. The skin is closed using either skin staples or Vetbond. The same procedure is repeated on the right side. […] Prior to implantation, osmotic pumps are filled with VEGF165 solution at a dose of 15 μg/kg/day, and primed overnight inside sterile saline beakers in a water bath (37° C.). Stretched PESO catheters coated with PPG (Poly propylene glycol Aldrich # 20-235-5) are attached using sterile technique and in accordance with manufacture's instructions the afternoon prior to surgery. For pump placement, an incision is made to expose the right jugular vein, an area is tunneled SubQ from the right side of the neck to the back and the pump is placed in the resulting SubQ pocket. The vessel is ligated with 4-0 silk, a cut is made in the vessel just distal to the tie and the catheter from the osmotic pump is threaded down stream (approx 2 cm) and secured with a second tie. The skin is closed in the same manner as above. Two weeks after the ligation surgery the rat underwent a second acute surgery to place indwelling catheters for microsphere measurements. Rats are anesthetized as described above. The animal is clipped, prepped, and EMLA cream is applied to each entry site. First an incision is made longitudinally at the ventral base of the tail using a 10 blade. A tapered PE 50 catheter is inserted approximately 3 cm into the ventral tail artery and anchored into place. The end of the catheter is then wrapped around the tail and tunneled SubQ over the back, exiting between the shoulder blades. Following tail artery cannulation, a midline neck incision is made to expose the left carotid artery for occlusive cannulation. A tapered PE 50 catheter is placed 3 cm into the carotid and the distal end is tunneled SubQ, exiting between the shoulder blades. The neck is closed with either skin stables or Vetbond and EMLA cream is applied. The exit site is closed around the catheters with a purse string suture stitch. The ends of the catheters are cauterized shut and the rat is allowed to recover from anesthesia for at least 4 hours. For blood flow measurements, rats are placed onto the treadmill and the catheters are connected to extension tubing via 22 gage male-male connectors. For microsphere withdrawals and blood pressure measurements, the tail artery catheter is connected to a syringe (coated with tween and heparin-), which is “T” Ed to a withdrawal pump and a pressure transducer. The carotid catheter is used for injecting the microspheres. The rat began running at speed 20 m/min and an elevation of 7°. […] The pump is set to stop at 90 seconds. The […] stopped, the extension lines are replaced and the animal's lines are flushed, and the animal allowed to rest. The syringe and lines are removed from the pump and the reference blood sample is place in a labeled tube for processing. […] At the completion of the second run, the animal is euthanized with 0.3 ml of Buthaneasia. Following euthanasia, tissues are removed, trimmed, weighed, recorded, and placed in marked tubes for processing. […]

Series [2] can be described thus: Rat hindlimb model: blood pressure and heart rate. The conditions noted are these: for Blood Pressure Post-Exercise / Heart Rate Exercise / Heart Rate Post-Exercise / Heart Rate Pre-Exercise / Blood Pressure Exercise / Blood Pressure Pre-Exercise: mean ± SE; for Blood Pressure Pre-Exercise: two weeks after ligation. From the text: An initial surgery is done to create hindlimb ischemia and implant osmotic pumps essentially as previously described with minor alterations. […] Following induction, animals are transferred to a surgical mat and anesthesia is continued via a non-rebreathing circuit. A warming lamp is positioned above the rat and a rectal probe is placed to monitor the animal's body temperature. The groin areas bilaterally are clipped and prepared with alternating Betadine and alcohol scrubs (3×) and a sterile drape is placed over the rat. The left femoral artery is exposed through a skin incision and subsequently ligated in two positions 1 cm apart; distal to the inguinal ligament and proximal to the femoral circumflex artery. The skin is closed using either skin staples or Vetbond. The same procedure is repeated on the right side. […] Stretched PESO catheters coated with PPG (Poly propylene glycol Aldrich # 20-235-5) are attached using sterile technique and in accordance with manufacture's instructions the afternoon prior to surgery. For pump placement, an incision is made to expose the right jugular vein, an area is tunneled SubQ from the right side of the neck to the back and the pump is placed in the resulting SubQ pocket. The vessel is ligated with 4-0 silk, a cut is made in the vessel just distal to the tie and the catheter from the osmotic pump is threaded down stream (approx 2 cm) and secured with a second tie. The skin is closed in the same manner as above.
Two weeks after the ligation surgery the rat underwent a second acute surgery to place indwelling catheters for microsphere measurements. Rats are anesthetized as described above. The animal is clipped, prepped, and EMLA cream is applied to each entry site. First an incision is made longitudinally at the ventral base of the tail using a 10 blade. A tapered PE 50 catheter is inserted approximately 3 cm into the ventral tail artery and anchored into place. The end of the catheter is then wrapped around the tail and tunneled SubQ over the back, exiting between the shoulder blades. Following tail artery cannulation, a midline neck incision is made to expose the left carotid artery for occlusive cannulation. A tapered PE 50 catheter is placed 3 cm into the carotid and the distal end is tunneled SubQ, exiting between the shoulder blades. The neck is closed with either skin stables or Vetbond and EMLA cream is applied. The exit site is closed around the catheters with a purse string suture stitch. The ends of the catheters are cauterized shut and the rat is allowed to recover from anesthesia for at least 4 hours.
For blood flow measurements, rats are placed onto the treadmill and the catheters are connected to extension tubing via 22 gage male-male connectors. For microsphere withdrawals and blood pressure measurements, the tail artery catheter is connected to a syringe (coated with tween and heparin-), which is “T” Ed to a withdrawal pump and a pressure transducer. The carotid catheter is used for injecting the microspheres. The rat began running at speed 20 m/min and an elevation of 7°. One minute into the run the pump is turned on at a rate of 0.5 ml/min, ten seconds later 0.5 ml (1×10^6 spheres/mL) of florescent microspheres are infused into the carotid line followed by a 0.5 ml flush over 30 seconds. The pump is set to stop at 90 seconds. The tmill is stopped, the extension lines are replaced and the animal's lines are flushed, and the animal allowed to rest. The syringe and lines are removed from the pump and the reference blood sample is place in a labeled tube for processing. The withdrawal syringe and extension lines are flushed 3 times with 2% tween, waste is flushed the reference blood tube A new syringe and lines are place on the pump and the procedure is repeated with the animal running at a faster speed, (25 m/min) and a different microsphere color is injected. At the completion of the second run, the animal is euthanized with 0.3 ml of Buthaneasia.

Series [3] in a line: Rat hindlimb model: body weight. The conditions noted are these: mean ± SE, in g (unit assumed).
Where [4] appears, read: continuous SubQ infusion High 15 mg/kg/d.
Setting [5] is: continuous SubQ infusion Low 5 mg/kg/d.
The mark [6] stands for this setting: continuous SubQ infusion High 15 mg/kg/d, in mmHg (unit assumed).

With `CCc1csc([C@H](Cc2ccc(NS(=O)(=O)O)cc2)NC(=O)[C@H](Cc2ccccc2)NC(=O)OC(C)(C)C)n1` [4-{(S)-2-[(S)-2-(tert-Butoxycarbonylamino)-3-phenylpropanamido]-2-(4-ethylthiazol-2-yl)ethyl}phenylsulfamic acid], the “Calf blood flow as compared to vehicle” value in series [1] (SubQ continuous infusion, both doses (5 mg/kg/d and 15 mg/kg/d)) is listed as “significant improvement”. Further, the entries for the “Blood Flow During exercise Calf (GPS)” value in series [1] (setting [4]) and in series [1] (setting [5]) were 75 ± 1.7 ml/min/100 g and 69 ± 2.0 ml/min/100 g, respectively. The “Calf blood flow response relative to VEGF” value in series [1] (lower dose (5 mg/kg/d)) was “did not elicit a maximal VEGF response”. Besides, in series [2] (compared with VEGF and/or Vehicle groups), the “Blood pressures of the treatment groups” value is given as “lower than the VEGF and/or Vehicle groups”. Further, the “Blood Pressure Post-Exercise” value in series [2] (setting [4]) was 133 ± 3.7; in series [2] (continuous SubQ infusion Low 5 mg/kg/d, in mmHg (unit assumed)) it was 135 ± 3.1. The “Heart Rate Exercise” value in series [2] (setting [4]) is 456 ± 13.0; in series [2] (setting [5]), 487 ± 10.1. The figures for the “Heart Rate Post-Exercise” value in series [2] (setting [4]) and in series [2] (setting [5]) were 462 ± 14.8 and 465 ± 18.8, respectively. Moreover, the “Heart Rate Pre-Exercise” value in series [2] (setting [4]) is given as 428 ± 13.5; in series [2] (setting [5]), 429 ± 19.8. Also, the “Blood Pressure Exercise” value in series [2] (setting [6]) was 144 ± 4.6; in series [2] (setting [5]) it was 142 ± 3.2. The “Blood Pressure Pre-Exercise” value in series [2] (setting [6]) is on record as 137 ± 4.5; in series [2] (setting [5]) it was 132 ± 3.9. The “Initial Body Wt” value in series [3] (High 15 mg/kg/d group) amounted to 364 ± 4.8; in series [3] (Low 5 mg/kg/d group), 365 ± 4.8. In addition, the figures for the “Ending Body Wt” value in series [3] (setting [4]) and in series [3] (setting [5]) were 409 ± 5.5 and 413 ± 5.6, respectively.
